For assay [1], the target named is T1, Salmonella typhimurium tryptophan synthase holoenzyme (α2β2), TSα reaction (Salmonella typhimurium, UniProt P00929).
T1 construct: made in house; host or cells: E. coli strain CB149pSTB7
Briefly: Inhibition of tryptophan synthase by the TSα reaction, microtiter kinetic coupled enzyme assay. Particulars: for IC50: Salmonella holoenzyme, 30 min at 37° C., 100 μM IGP. Type of assay: biochemical. From the text: Inhibitors of TS were identified by their ability to inhibit the production of glyceraldehyde-3-P by the TSα reaction of the Salmonella typhimurium holoenzyme (α2β2) in the presence of a limiting amount of indole-3-glycerolphosphate and an excess of serine
The assay was developed as a new microtiter plate kinetic enzyme assay based on the combined methods of Creighton (EurJBch 13:1-10, 1970) and Creighton and Yanofsky (JBC 241:980, 1966) with modifications. The rate of glyceraldehyde production was measured as the linear […] (spectrophotometric absorbance at 340 nm) in the presence of glyceraldehyde-3-phosphate dehydrogenase in a coupled enzyme assay.
The assay solution contained a test inhibitor compound, 50 mM Tris-Cl (pH 7.8), 6 mM sodium arsenate, 5 μg/ml pyridoxal phosphate, 0.5 mM DTT, 0.18M NaCl, 60 mM serine, 1.6 mM NAD+, 8 e.u./ml yeast glyceraldehyde-3-phosphate dehydrogenase (Sigma, Catalog #G2647; Kirschner et al., Eur J Bch, 1975, 60:513 and approximately 1.5 e.u. Salmonella TS. 100 μM IGP was added to start the reaction, which was run at 37° C. and using 300 μl per assay in a microtiter plate.
The substrate IGP was used at 1.5 to 2 times its Km concentration to enhance the likelihood of identifying weak inhibitors, binding at the substrate binding site. This approach to identifying enzyme inhibitors was novel, since an excess of all substrates, (at least 5-times the Km value of each), is conventionally used in the measurement of enzyme activity.
Potential inhibitors were evaluated by adding 100 μM inhibitor (equimolar to substrate IGP):or less, in a 1:1 dilution series down from 100 μM, until the inhibition measured was less than 15%. Reaction rates at Vmax were compared in the presence and absence of inhibitors.
In addition, some weaker inhibitors were identified following preincubation of the inhibitor with the TS assay mix for 24 hrs prior to the addition of IGP. The identifying weaker inhibitors is to aid in a quantitative structure activity relationship (QSAR) evaluation, or to identify new herbicidal inhibitor leads. The previously known inhibitor IPP was used as a standard in all tests, where the I50 for IPP was 1-2 uM.

The test system of assay [2] is Arabidopsis thaliana. As to the kind of experiment: Herbicidal activity and tryptophan reversal on Arabidopsis grown on agar medium. Type of assay: in vivo. The arrangement: key: 0 - no effect; 9 - total kill; C - chlorotic seedlings 4-6 days after treatment. The method, then: In this experiment, TS inhibitors were tested on Arabidopsis thaliana grown Murashige minimal organics medium, (obtained from Life Technologies, Grand Island, N.Y.), containing 0.7% agar. Compounds were tested at different concentrations to assess their herbicidal activity.

Assay [3] has as its target T2, Arabidopsis TS enzyme (Arabidopsis thaliana, UniProt Q42529).
T2 construct: GST (N, cleaved yes); made in house; host or cells: E. coli DH5α (pGEX-2T constructs)
T2 sequence (Q42529 with tags, fused parts or gaps): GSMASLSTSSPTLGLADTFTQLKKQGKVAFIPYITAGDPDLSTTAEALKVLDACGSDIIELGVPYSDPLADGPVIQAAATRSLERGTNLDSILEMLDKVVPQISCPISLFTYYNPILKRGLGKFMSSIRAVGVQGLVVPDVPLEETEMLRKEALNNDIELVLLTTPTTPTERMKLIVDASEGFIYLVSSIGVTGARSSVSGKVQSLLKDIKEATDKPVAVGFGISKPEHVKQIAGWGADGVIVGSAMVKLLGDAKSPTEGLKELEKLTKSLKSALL
T2 sequence (P14671 with tags, fused parts or gaps partner): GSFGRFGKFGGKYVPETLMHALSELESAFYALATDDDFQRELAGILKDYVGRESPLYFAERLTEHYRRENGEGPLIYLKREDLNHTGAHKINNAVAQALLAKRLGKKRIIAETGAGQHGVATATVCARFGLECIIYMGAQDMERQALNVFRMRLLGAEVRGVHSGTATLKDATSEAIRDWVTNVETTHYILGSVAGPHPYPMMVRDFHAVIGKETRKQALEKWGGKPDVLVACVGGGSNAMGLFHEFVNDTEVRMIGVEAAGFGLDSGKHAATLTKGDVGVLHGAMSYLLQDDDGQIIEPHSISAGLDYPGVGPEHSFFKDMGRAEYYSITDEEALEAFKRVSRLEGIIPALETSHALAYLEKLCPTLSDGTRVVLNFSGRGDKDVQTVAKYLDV
Briefly: TSα assay with recombinant plant TSα and TSβ expressed in E. coli. Type of assay: biochemical. Particulars: inhibitor 82 uM; pAC 758 (1.5 ug) + pAC 755 (3 ug). The method, then:
The plant TS proteins were expressed as fusion proteins with glutathione transferase (GST) to facilitate purification. After purification, the GST protein was cleaved off with thrombin as described above before the plant TS assays were performed. After thrombin cleavage, both TSα and TSβ-subunit proteins retained a Gly-Ser residue on the N-terminal of the protein in addition to the TS sequence. […]
The TSα enzyme assay was conducted as described in Example 3 for Salmonella TSα.
Specifically, phenylthiophosphonic acid compounds were used. The TSα assay conditions were as described for Salmonella TSα in Example 3 except that recombinant plant proteins were used instead of the Salmonella enzyme.

Where [4] appears, read: TSα reaction, read-out: TS inhibition I50.

Structures can show the parent of a compound that is named as a salt. Where two headings read alike, the source gives them in different places.

T1 sequence (P00929 whole entry): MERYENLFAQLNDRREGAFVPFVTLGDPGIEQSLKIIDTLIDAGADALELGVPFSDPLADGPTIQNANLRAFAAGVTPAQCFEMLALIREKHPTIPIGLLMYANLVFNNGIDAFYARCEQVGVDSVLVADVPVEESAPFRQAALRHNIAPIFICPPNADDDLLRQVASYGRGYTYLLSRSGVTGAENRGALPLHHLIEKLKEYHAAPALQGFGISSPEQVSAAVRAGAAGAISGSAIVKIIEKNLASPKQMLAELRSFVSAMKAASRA
T1 sequence (P0A2K1 2-397, further chain): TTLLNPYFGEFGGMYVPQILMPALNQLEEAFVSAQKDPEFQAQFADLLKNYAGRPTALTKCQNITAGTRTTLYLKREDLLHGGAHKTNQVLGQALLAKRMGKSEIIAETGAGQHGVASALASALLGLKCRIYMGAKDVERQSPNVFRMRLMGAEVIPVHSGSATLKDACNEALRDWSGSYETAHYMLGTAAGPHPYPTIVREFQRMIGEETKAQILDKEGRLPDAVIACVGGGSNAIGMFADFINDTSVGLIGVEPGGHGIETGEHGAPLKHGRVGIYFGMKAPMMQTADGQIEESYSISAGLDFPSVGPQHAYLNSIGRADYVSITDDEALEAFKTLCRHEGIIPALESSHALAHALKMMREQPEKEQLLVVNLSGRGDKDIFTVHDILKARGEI

`CP(=O)(O)CCCCSc1ccccc1N` [Phosphinic acid, {4-[(o-aminophenyl)thio]butyl}methyl-]: the IC50 in assay [1] (setting [4]) is 100 µM.

On to `CCOP(=O)(CCCCSc1cc(Br)ccc1N)OCC` [Phosphonic acid, {4-[2-amino-5-bromophenyl)thio]butyl}-, diethyl ester], for which the herbicidal injury rating in assay [2] (herbicide 7.8 μM) came to 1; in assay [2] (herbicide 16 μM), 1; in assay [2] (herbicide 31 μM) it was 1; in assay [2] (herbicide 63 μM), 1; in assay [2] (herbicide 125 μM), 4; in assay [2] (herbicide 250 μM) it was 5. Further, the herbicidal injury rating is listed as 6 in assay [2] (herbicide 500 μM) and 8 in assay [2] (herbicide 1000 μM).

In the case of `Nc1ccc(Br)cc1SCCCCP(=O)(O)O` [Phosphonic acid, {4-[2-amino-5-bromophenyl)thio]butyl}-], the IC50 in assay [1] (TS inhibition I50, TSα reaction) was 0.07 µM. The “Enzyme activity, % of control” value in assay [1] (inhibitor 30 nM) is 70.5 % of control; in assay [1] (inhibitor 100 nM), 38.5 % of control; in assay [1] (inhibitor 300 nM), 24.7 % of control; in assay [1] (inhibitor 1000 nM), 8.7 % of control. Further, the herbicidal injury rating in assay [2] (herbicide 7.8 μM) is recorded as 1; in assay [2] (herbicide 16 μM) it was 1; in assay [2] (herbicide 31 μM), 2; in assay [2] (herbicide 63 μM) it was 3; in assay [2] (herbicide 125 μM) it was 3; in assay [2] (herbicide 250 μM), 4. In addition, the herbicidal injury rating in assay [2] (herbicide 500 μM) and in assay [2] (herbicide 1000 μM) was 4 each time.

In the case of `Nc1cccnc1SCCCCP(=O)(O)O` [Phosphonic acid, {4-[3-amino-2-phridyl)thio]butyl}-], the IC50 in assay [1] (setting [4]) amounted to 5 µM.

Take `CCOP(=O)(CCCCSc1cc(Cl)ccc1N)OCC` [Phosphonic acid, {4-[(2-amino-5-chlorophenyl)thio]butyl}-, diethyl ester]: the herbicidal injury rating in assay [2] (herbicide 16 μM) was determined as 0; in assay [2] (herbicide 31 μM), 1; in assay [2] (herbicide 63 μM), 1; in assay [2] (herbicide 125 μM), 3; in assay [2] (herbicide 250 μM), 5; in assay [2] (herbicide 500 μM), 6. Besides, in assay [2] (herbicide 1000 μM), the herbicidal injury rating came to 7.

Turning to `Nc1ccc(Cl)cc1SCCCCP(=O)(O)O` [Phosphonic acid, {4-[(2-amino-5-chlorophenyl)thio]butyl}-], the herbicidal injury rating in assay [2] (herbicide 7.8 μM) is 0; in assay [2] (herbicide 16 μM) it was 1; in assay [2] (herbicide 31 μM) it was 1; in assay [2] (herbicide 63 μM), 1; in assay [2] (herbicide 125 μM) it was 3; in assay [2] (herbicide 250 μM), 3. Besides, the herbicidal injury rating in assay [2] (herbicide 500 μM) and in assay [2] (herbicide 1000 μM) was 3 throughout.

In the case of `Nc1cc(C(F)(F)F)ccc1SCCCCP(=O)(O)O` [Phosphonic acid, {4-[(2-amino-alpha,alpha,alpha-trifluoro-p-tolyl)thio]butyl}-], the IC50 in assay [1] (setting [4]) amounted to 7 µM.

`Nc1ccccc1SCC=CCP(=O)(O)O` [Phosphonic acid, {4-[(o-aminophenyl)thio]-2-butenyl}-]: the IC50 in assay [1] (setting [4]) amounted to 0.25 µM. Moreover, the “Enzyme activity, % of control” value is reported as 70.7 % of control in assay [1] (inhibitor 100 nM); 43.4 % of control in assay [1] (inhibitor 300 nM); 25.3 % of control in assay [1] (inhibitor 1000 nM); 13.8 % of control in assay [1] (inhibitor 3000 nM); 4.5 % of control in assay [1] (inhibitor 10000 nM).

Regarding `Nc1ccccc1SCCCCP(=O)(O)O` [Phosphonic acid, {4-[(o-aminophenyl)thio]butyl}-, dilithium salt], in assay [1] (setting [4]), the IC50 was 0.4 µM.

On to `NC1CCCCC1.NC1CCCCC1.O=P(O)(O)CCCC[S+]([O-])c1ccccc1O` (stereo not drawn) [Phosphonic acid, {4-[(o-hydroxyphenyl)sulfinyl]butyl}-, with cyclohexylamine (1:2)], for which the herbicidal rating in assay [2] (herbicide 7.8 mM + 100 μM Trp) turned out to be 0; in assay [2] (herbicide 7.8 mM, no Trp) it was 5; in assay [2] (herbicide 16 mM + 100 μM Trp), 0; in assay [2] (herbicide 16 mM, no Trp), 6; in assay [2] (herbicide 31 mM + 100 μM Trp), 3; in assay [2] (herbicide 31 mM, no Trp), 6. The herbicidal rating in assay [2] (herbicide 63 mM + 100 μM Trp) came out at 5; in assay [2] (herbicide 63 mM, no Trp) it was 6; in assay [2] (herbicide 125 mM + 100 μM Trp), 5; in assay [2] (herbicide 125 mM, no Trp) it was 6; in assay [2] (herbicide 250 mM + 100 μM Trp), 5; in assay [2] (herbicide 250 mM, no Trp), 7Y. For the same molecule, the herbicidal rating in assay [2] (herbicide 500 mM + 100 μM Trp) was 5; in assay [2] (herbicide 500 mM, no Trp), 7Y; in assay [2] (herbicide 1000 mM + 100 μM Trp) it was 5; in assay [2] (herbicide 1000 mM, no Trp) it was 8.

On to `O=P(O)(O)CC=CCSc1ccccc1O` [Phosphonic acid, {4-[(o-hydroxyphenyl)thio]-2-butenyl}-], for which, in assay [3], the “TSα activity, % of control” value was 14.7 % of control and the “TSα activity, relative Vmax” value was found to be 0.909 mOD/min.

Take `CCOP(=O)(CCCCSc1ccccc1O)OCC` [Phosphonic acid, {4-[(o-hydroxyphenyl)thio]butyl}-, diethyl ester]: the herbicidal injury rating is listed as 0 in assay [2] (herbicide 7.8 μM); 1 in assay [2] (herbicide 16 μM); 3 in assay [2] (herbicide 31 μM); 5 in assay [2] (herbicide 63 μM); 6 in assay [2] (herbicide 125 μM); 7 in assay [2] (herbicide 250 μM). In addition, the values for the herbicidal injury rating in assay [2] (herbicide 500 μM) and in assay [2] (herbicide 1000 μM) were 8 and 9, respectively.

The values above are taken from US20050050594A1, “Tryptophan synthase as a site of herbicide action” (priority 1999, published 2005).
